Assay [1] deals with T1, 5-HT1A receptor (Homo sapiens, UniProt P08908).
T1 sequence (P08908 1-422): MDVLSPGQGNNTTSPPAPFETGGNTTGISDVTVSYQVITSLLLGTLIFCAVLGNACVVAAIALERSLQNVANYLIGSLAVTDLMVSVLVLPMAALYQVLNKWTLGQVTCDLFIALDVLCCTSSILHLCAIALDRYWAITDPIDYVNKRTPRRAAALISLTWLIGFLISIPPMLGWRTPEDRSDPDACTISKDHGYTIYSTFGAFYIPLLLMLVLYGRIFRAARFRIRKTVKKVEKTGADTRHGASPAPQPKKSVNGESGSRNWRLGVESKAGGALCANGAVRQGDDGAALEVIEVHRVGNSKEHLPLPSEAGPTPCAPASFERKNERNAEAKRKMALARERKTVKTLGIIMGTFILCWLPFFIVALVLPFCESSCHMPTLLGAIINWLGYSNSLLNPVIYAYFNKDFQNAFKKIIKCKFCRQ
Kind of assay: 5-HT1A receptor affinity: displacement of [3H] 8-OH-DPAT. The class given is binding. Further details: expressed in transfected cells. The note with it: displacement of [3H] 8-OH-DPAT; CHO cells stably transfected with human 5-HT1A receptors; read-out: 5-HT1A Receptor Affinity Ki. On the technique in general: Displacement assays read how much labelled ligand stays bound in the presence of the test substance.

A further assay has as its target T2, serotonin transporter (Rattus norvegicus, UniProt P31652).
T2 construct: displace ^3H-paroxetine from male rat cortical membranes; from tissue; host or cells: male rat cortical membranes
In words: 5-HT transporter affinity: displacement of 3H-paroxetine from male rat cortical membranes. It counts as binding. The following applies: displacement of 3H-paroxetine; male rat cortical membranes; read-out: 5-HT Transporter Affinity Ki.

The target in assay [2] is T3, cloned human 5-HT1A receptors (Homo sapiens, UniProt P08908).
T3 construct: expressed in transfected cells
T3 sequence (P08908 1-422): T1 sequence (P08908 1-422)
Kind of assay: 35S-GTPγS binding assay, 5-HT1A function. It counts as biochemical. The following applies: for EC50: agonist potency; for IC50: antagonist potency, reversal of 8-OH-DPAT, read-out: 5-HT1A Function GTPγS IC50. (GTPγS is a poorly hydrolysed GTP analogue; its binding reports G protein activation.)

For assay [3], the target named is T1, 5-HT1A receptor. Kind of assay: cAMP accumulation assay, 5-HT1A function. It counts as cell-based. The following applies: for EC50: cells marked EC50 (agonist); for Emax / 5-HT1A Function cAMP (Emax): in brackets after EC50 or IC50; for Emax: read-out: 5-HT1A Function cAMP (Emax); for IC50: cells marked IC50 (antagonist), read-out: 5-HT1A Function cAMP IC50.
[4] abbreviates: maximum stimulatory effect, in brackets after EC50, read-out: 5-HT1A Function GTPγS (Emax).
Where [5] appears, read: maximum inhibitory effect, in brackets after IC50, read-out: 5-HT1A Function GTPγS (Imax).
The mark [6] stands for this setting: maximum inhibitory effect, in brackets after IC50.

One may read the Ki as a dissociation constant, usually derived from enzyme kinetics or from competition with a known ligand. The term EC50 denotes the concentration that produces a half-maximal response. Read a high EC50 as a need for much substance. The term IC50 denotes the concentration that inhibits the measured activity by half.

Structures are written as SMILES. Where two headings read alike, the source gives them in different places.

T2 sequence (P31652 whole entry): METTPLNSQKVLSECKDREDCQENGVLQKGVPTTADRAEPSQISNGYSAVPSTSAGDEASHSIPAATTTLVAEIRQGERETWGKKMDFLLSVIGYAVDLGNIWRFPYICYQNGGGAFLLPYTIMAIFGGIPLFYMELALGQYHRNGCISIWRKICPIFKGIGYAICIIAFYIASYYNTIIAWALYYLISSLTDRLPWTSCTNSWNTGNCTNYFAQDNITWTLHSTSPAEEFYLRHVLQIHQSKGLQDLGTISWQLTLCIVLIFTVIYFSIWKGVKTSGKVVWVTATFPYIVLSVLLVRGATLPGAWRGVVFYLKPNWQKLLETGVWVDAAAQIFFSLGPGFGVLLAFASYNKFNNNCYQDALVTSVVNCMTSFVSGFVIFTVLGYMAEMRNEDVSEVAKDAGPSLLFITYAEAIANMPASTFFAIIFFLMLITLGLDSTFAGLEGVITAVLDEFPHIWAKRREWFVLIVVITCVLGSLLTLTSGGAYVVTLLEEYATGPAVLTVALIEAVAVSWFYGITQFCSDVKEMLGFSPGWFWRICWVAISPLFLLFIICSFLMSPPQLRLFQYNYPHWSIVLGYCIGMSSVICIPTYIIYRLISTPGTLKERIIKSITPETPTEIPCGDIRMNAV

Consider `NC(=O)c1cccc2c1CC(N(CCCc1c[nH]c3ccc(F)cc13)CC1CC1)CO2` (centres unmarked) [Compound 148, 3-{(cyclopropylmethyl)[3-(5-fluoro-1H-indol-3-yl)propyl]amino}chromane-5-carboxamide], for which the Ki is 0.33 nM at 5-HT1A receptor [1] and 3.25 nM on serotonin transporter. Besides, the EC50 in assay [2] was determined as 8.04 nM; at 5-HT1A receptor [3] it was 0.54 nM. For the same compound, the Emax in assay [2] (setting [4]) was 81%; at 5-HT1A receptor [3], 100%.
Consider `CCN(CCCCc1c[nH]c2ccc(F)cc12)C1COc2c(F)ccc(C(N)=O)c2C1` (centres unmarked) [Compound 80, 3-{ethyl[4-(5-fluoro-1H-indol-3-yl)butyl]amino}-8-fluorochromane-5-carboxamide], for which the results for the Ki at 5-HT1A receptor [1] and at serotonin transporter were 312 nM and 0.15 nM, respectively. The IC50 in assay [2] worked out at 1000 nM; on 5-HT1A receptor [3], 1370 nM. Also, the Emax was 100% in assay [2] (setting [5]) and 0% at 5-HT1A receptor [3].
With `CCCN(CCCCc1c[nH]c2ccc(F)cc12)C1COc2c(F)ccc(C(=O)NC)c2C1` (centres unmarked) [Compound 93, 8-fluoro-3-[[4-(5-fluoro-1H-indol-3-yl)butyl](propyl)amino]-N-methylchromane-5-carboxamide], the figures for the Ki at 5-HT1A receptor [1] and at serotonin transporter were 7.67 nM and 2.49 nM, respectively. For the same compound, the IC50 was 304 nM in assay [2] and 228 nM on 5-HT1A receptor [3]. In addition, the Emax in assay [2] (setting [5]) stood at 100%; at 5-HT1A receptor [3], 0%.
In the case of `C[C@H](CCN(C1CCC1)[C@H]1COc2c(F)ccc(C(N)=O)c2C1)c1c[nH]c2ccc(F)cc12` [Compound 152a, (3R)-3-{cyclobutyl[(3R)-3-(5-fluoro-1H-indol-3-yl)butyl]amino}-8-fluorochromane-5-carboxamide], the Ki on 5-HT1A receptor [1] is 20 nM; on serotonin transporter it was 181 nM. The figures for the IC50 (in assay [2]; at 5-HT1A receptor [3]) were 2200 nM and 544 nM, respectively. The Emax was found to be 100% in assay [2] (setting [5]) and 0% on 5-HT1A receptor [3].
For `NC(=O)c1ccc(F)c2c1CC(N(CCCc1c[nH]c3c(Cl)cccc13)CC1CC1)CO2` (centres unmarked) [Compound 112, 3-[[3-(7-chloro-1H-indol-3-yl)propyl](cyclopropylmethyl)amino]-8-fluorochromane-5-carboxamide], the Ki at 5-HT1A receptor [1] was 0.74 nM; at serotonin transporter it was 61 nM. Further, the figures for the IC50 (in assay [2]; at 5-HT1A receptor [3]) were 241 nM and 56.8 nM, respectively. In addition, the Emax worked out at 100% in assay [2] (setting [5]) and 0% on 5-HT1A receptor [3].
For the compound `CCCN(CC1CCc2[nH]c3ccc(F)cc3c2C1)[C@H]1COc2c(F)ccc(C(N)=O)c2C1` (single isomer, unassigned; (+)) [Compound 177b], the results for the Ki at 5-HT1A receptor [1] and on serotonin transporter were 7.34 nM and 181 nM, respectively. Further, the values for the IC50 (in assay [2]; on 5-HT1A receptor [3]) were 181 nM and 36.2 nM, respectively. In addition, the 5-HT1A Function GTPγS (Imax) in assay [2] (setting [6]) was 74%. Also, the 5-HT1A Function cAMP (Emax) at 5-HT1A receptor [3] stood at 0%.
On to `COC(=O)c1ccc(F)c2c1CC(N(CCCc1c[nH]c3ccc(F)cc13)C1CCC1)CO2` (centres unmarked) [Compound 55, Methyl 3-{cyclobutyl[3-(5-fluoro-1H-indol-3-yl)propyl]amino}-8-fluorochromane-5-carboxylate], for which the Ki on 5-HT1A receptor [1] was 73.8 nM; at serotonin transporter, 161 nM. In assay [2] (setting [6]), this compound had a 5-HT1A Function GTPγS (Imax) of 62%. The compound also gave a 5-HT1A Function cAMP (Emax) at 5-HT1A receptor [3] of 0%.
Turning to `CCN(CCCc1c[nH]c2c(OC)cccc12)C1COc2c(F)ccc(C(N)=O)c2C1` (centres unmarked) [Compound 101, 3-{ethyl[3-(7-methoxy-1H-indol-3-yl)propyl]amino}-8-fluorochromane-5-carboxamide], the Ki on 5-HT1A receptor [1] is 0.5 nM; at serotonin transporter, 642 nM. For the same compound, the EC50 in assay [2] is 103 nM; at 5-HT1A receptor [3], 45.1 nM. The Emax in assay [2] (setting [4]) was determined as 99%; on 5-HT1A receptor [3], 68.5%.
With `COc1cccc2c1CC(N(CCCc1c[nH]c3ccc(F)cc13)C(C)C)CO2` (centres unmarked) [Compound 40, N-[3-(5-fluoro-1H-indol-3-yl)propyl]-N-isopropyl-N-(5-methoxy-3,4-dihydro-2H-chromen-3-yl)amine], the Ki at 5-HT1A receptor [1] is 80.8 nM; at serotonin transporter, 3.8 nM. Besides, the IC50 in assay [2] came to 3770 nM. Moreover, the Emax in assay [2] (setting [5]) was found to be 46%; at 5-HT1A receptor [3] it was 0%.
As to `CCCN(C(C)CCc1c[nH]c2ccc(C#N)cc12)C1COc2c(F)ccc(C(N)=O)c2C1` (single isomer, unassigned) [Compound 13a, 3-[[3-(5-cyano-1H-indol-3-yl)-1-methylpropyl](propyl)amino]-8-fluoro-3,4-dihydro-2H-chromene-5-carboxamide], the figures for the Ki on 5-HT1A receptor [1] and at serotonin transporter were 24.3 nM and 23.5 nM, respectively. Further, the figures for the IC50 (in assay [2]; on 5-HT1A receptor [3]) were 534 nM and 76.6 nM, respectively. In addition, the Emax in assay [2] (setting [5]) is 100%. This compound gave a 5-HT1A Function cAMP (Emax) at 5-HT1A receptor [3] of 0%.
With `CC(Cc1c[nH]c2ccc(F)cc12)CN(CC1CC1)[C@H]1COc2c(F)ccc(C(N)=O)c2C1` (single isomer, unassigned) [Compound 155a], the Ki on 5-HT1A receptor [1] was determined as 4.16 nM; at serotonin transporter, 48.8 nM. Moreover, the IC50 in assay [2] was 151 nM; at 5-HT1A receptor [3], 106 nM. The figures for the Emax (in assay [2] (setting [5]); at 5-HT1A receptor [3]) were 100% and 0%, respectively.
`CCCN(CCCCc1c[nH]c2ccc(F)cc12)C1COc2c(F)ccc(C(N)=O)c2C1` (centres unmarked) [Compound 81, 8-fluoro-3-[[4-(5-fluoro-1H-indol-3-yl)butyl](propyl)amino]chromane-5-carboxamide]: the Ki on 5-HT1A receptor [1] was found to be 4.64 nM; on serotonin transporter, 6.15 nM. Moreover, the IC50 in assay [2] turned out to be 775 nM; on 5-HT1A receptor [3] it was 125 nM. Besides, the Emax in assay [2] (setting [5]) is 100%; at 5-HT1A receptor [3] it was 0%.
In the case of `CCN(CCCc1c[nH]c2ccc(F)cc12)C1COc2cccc(C(N)=O)c2C1` (centres unmarked) [Compound 149, 3-{ethyl[3-(5-fluoro-1H-indol-3-yl)propyl]amino}chromane-5-carboxamide], the Ki on 5-HT1A receptor [1] stood at 2.72 nM; at serotonin transporter, 9.25 nM. Also, the EC50 in assay [2] turned out to be 44.9 nM; on 5-HT1A receptor [3], 3.65 nM. Moreover, the figures for the Emax (in assay [2] (setting [4]); on 5-HT1A receptor [3]) were 79% and 70%, respectively.
On to `COc1ccc2[nH]cc(CCCN(CC3CC3)C3COc4c(F)ccc(C(N)=O)c4C3)c2c1` (centres unmarked) [Compound 108, 3-{(cyclopropylmethyl)[3-(5-methoxy-1H-indol-3-yl)propyl]amino}-8-fluorochromane-5-carboxamide], for which the Ki on 5-HT1A receptor [1] is 1.17 nM; at serotonin transporter, 882 nM. The IC50 came to 94.2 nM in assay [2] and 45.4 nM at 5-HT1A receptor [3]. Also, the Emax is 100% in assay [2] (setting [5]) and 0% at 5-HT1A receptor [3].
Take `NC(=O)c1ccc(F)c2c1CC(N(CC1CCc3[nH]c4ccc(F)cc4c3C1)C1CCC1)CO2` (single isomer, unassigned; (+)) [Compound 174b, (+)-3-{cyclobutyl[(6-fluoro-2,3,4,9-tetrahydro-1H-carbazol-3-yl)methyl]amino}-8-fluorochromane-5-carboxamide]: the results for the Ki on 5-HT1A receptor [1] and on serotonin transporter were 0.85 nM and 192 nM, respectively. The IC50 in assay [2] came out at 1440 nM; on 5-HT1A receptor [3], 64.1 nM. This compound had a 5-HT1A Function GTPγS (Imax) in assay [2] (setting [6]) of 67%. Further, the Emax at 5-HT1A receptor [3] is 0%.
As to `NC(=O)c1ccc(F)c2c1CC(N(CCCc1c[nH]c3ccc(Cl)cc13)C1CCC1)CO2` (centres unmarked) [Compound 117, 3-[[3-(5-chloro-1H-indol-3-yl)propyl](cyclobutyl)amino]-8-fluorochromane-5-carboxamide], the figures for the Ki on 5-HT1A receptor [1] and at serotonin transporter were 3.98 nM and 75.5 nM, respectively. Also, the IC50 in assay [2] was 735 nM; on 5-HT1A receptor [3], 272 nM. Moreover, the Emax was 100% in assay [2] (setting [5]) and 0% on 5-HT1A receptor [3].
As to `CCN(CCCCc1coc2ccccc12)C1COc2cccc(OC)c2C1` (centres unmarked) [Compound 22, N-[4-(1-benzofuran-3-yl)butyl]-N-ethyl-N-(5-methoxy-3,4-dihydro-2H-chromen-3-yl)amine], the Ki at 5-HT1A receptor [1] came to 4.77 nM; on serotonin transporter, 35.7 nM. Besides, the EC50 came to 224 nM in assay [2] and 31 nM on 5-HT1A receptor [3]. In assay [2], the IC50 came out at 1180 nM. The Emax in assay [2] (setting [5]) was 31%; in assay [2] (setting [4]) it was 82%; at 5-HT1A receptor [3], 100%.
As to `NC(=O)c1ccc(F)c2c1CC(N(CC1CCc3[nH]c4ccc(F)cc4c3C1)C1CCC1)CO2` (single isomer, unassigned; (+)) [Compound 174c, (+)-3-{cyclobutyl[(6-fluoro-2,3,4,9-tetrahydro-1H-carbazol-3-yl)methyl]amino}-8-fluorochromane-5-carboxamide], the Ki on 5-HT1A receptor [1] was found to be 185 nM; at serotonin transporter, 1100 nM. Also, the response in assay [2] was half-maximal at 978 nM (EC50). For the same compound, the Emax in assay [2] (setting [4]) came to 55%. The IC50 on 5-HT1A receptor [3] was 607 nM. At 5-HT1A receptor [3], this compound registered a 5-HT1A Function cAMP (Emax) of 0%.

Source of the values: patent US20050032873A1, “3-Amino chroman and 2-amino tetralin derivatives” (Wyeth, priority 2003, published 2005).
